Test results as given in patent US20180244699A1, “1-HYDROXY-3H-2,1-BENZOXABOROLE DERIVATIVES AND THEIR USE AS MICROBIOCIDES” (Syngenta Participations AG, priority 2015, published 2018).

Columns and labels:
Assay type in all cases: cell-based
[1] = test system: Glomerella lagenarium (Colletotrichum lagenarium); assay: Glomerella lagenarium (Colletotrichum lagenarium) / liquid culture (anthracnose); details: Colletotrichum orbiculare, growth inhibition photometrically 3-4 days after application, compared to untreated control
Method: 3. Glomerella lagenarium (Colletotrichum lagenarium)/Liquid Culture (Anthracnose) Conidia of the fungus from cryogenic storage are directly mixed into nutrient broth (PDB potato dextrose broth). After placing a (DMSO) solution of test compound into a microtiter plate (96-well format), the nutrient broth containing the fungal spores is added. The test plates are incubated at 24° C. and the inhibition of growth is measured photometrically 3-4 days after application.

[2] = test system: Monographella nivalis (Microdochium nivale); assay: Monographella nivalis (Microdochium nivale) / liquid culture (foot rot cereals); details: growth inhibition photometrically 4-5 days after application, compared to untreated control
Method: 8. Monographella nivalis (Microdochium nivale)/Liquid Culture (Foot Rot Cereals) Conidia of the fungus from cryogenic storage are directly mixed into nutrient broth (PDB potato dextrose broth). After placing a (DMSO) solution of test compound into a microtiter plate (96-well format), the nutrient broth containing the fungal spores is added. The test plates are incubated at 24° C. and the inhibition of growth is determined photometrically 4-5 days after application.

Gaeumannomyces graminis = Gaeumannomyces graminis / liquid culture (take-all of cereals); details: growth inhibition photometrically 4-5 days after application, compared to untreated control
Method: 6. Gaeumannomyces Graminis/Liquid Culture (Take-all of Cereals) Mycelial fragments of the fungus from cryogenic storage were directly mixed into nutrient broth (PDB potato dextrose broth). After placing a (DMSO) solution of test compound into a microtiter plate (96-well format), the nutrient broth containing the fungal spores is added. The test plates are incubated at 24° C. and the inhibition of growth is determined photometrically 4-5 days after application.

Pythium ultimum = Pythium ultimum / liquid culture (seedling damping off); details: Globisporangium ultimum, growth inhibition photometrically 2-3 days after application, compared to untreated control
In short: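 Fungal mycelia fragments and oospores from fresh liquid culture mixed into potato dextrose broth and added to DMSO solutions of test compound. Incubated at 24° C.; growth inhibition read photometrically 2-3 days after application.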

[3] = test system: Thanatephorus cucumeris (Rhizoctonia solani); assay: Thanatephorus cucumeris (Rhizoctonia solani) / liquid culture (foot rot, damping-off); details: growth inhibition photometrically 3-4 days after application, compared to untreated control
Method: 16. Thanatephorus cucumeris (Rhizoctonia solani)/Liquid Culture (Foot Rot, Damping-Off) Mycelia fragments of a newly grown liquid culture of the fungus are directly mixed into nutrient broth (PDB potato dextrose broth). After placing a (DMSO) solution of the test compounds into a microtiter plate (96-well format), the nutrient broth containing the fungal material is added. The test plates are incubated at 24° C. and the inhibition of growth is determined photometrically 3-4 days after application.

[4] = test system: Mycosphaerella graminicola (Septoria tritici); assay: Mycosphaerella graminicola (Septoria tritici) / liquid culture (Septoria blotch); details: Zymoseptoria tritici, growth inhibition photometrically 4-5 days after application, compared to untreated control
Method: 18. Mycosphaerella graminicola (Septoria tritici)/Liquid Culture (Septoria Blotch) Conidia of the fungus from cryogenic storage are directly mixed into nutrient broth (PDB potato dextrose broth). After placing a (DMSO) solution of test compound into a microtiter plate (96-well format), the nutrient broth containing the fungal spores is added. The test plates are incubated at 24° C. and the inhibition of growth is determined photometrically 4-5 days after application.

Measured: inhibition of growth at 20 ppm

COc1c(C(=O)OC(C)c2cccc(Cl)c2)ccc2c1B(O)OC2 (centres unmarked) [Compound 83, 1-(3-chlorophenyl)ethyl 1-hydroxy-7-methoxy-3H-2,1-benzoxaborole-6-carboxylate]
≥ 80%: all assays above

COc1c(C(=O)OCc2ccccc2)ccc2c1B(O)OC2 [Compound 85, benzyl 1-hydroxy-7-methoxy-3H-2,1-benzoxaborole-6-carboxylate]
≥ 80%: all assays above

COc1c(C(=O)OC(CC(F)(F)F)c2ccccc2)ccc2c1B(O)OC2 (centres unmarked) [Compound 89, (3,3,3-trifluoro-1-phenyl-propyl) 1-hydroxy-7-methoxy-3H-2,1-benzoxaborole-6-carboxylate]
not listed: [4]
≥ 80%: all other assays above

COc1c(C(=O)OCC2SCCS2)ccc2c1B(O)OC2 [Compound 100, 1,3-dithiolan-2-ylmethyl 1-hydroxy-7-methoxy-3H-2,1-benzoxaborole-6-carboxylate]
not listed: [4]
≥ 80%: all other assays above

COc1cccc(C#CCOC(=O)c2ccc3c(c2OC)B(O)OC3)c1 [Compound 107, 3-(3-methoxyphenyl)prop-2-ynyl 1-hydroxy-7-methoxy-3H-2,1-benzoxaborole-6-carboxylate]
≥ 80%: all assays above

CCOC(=O)COC(=O)c1ccc2c(c1OC)B(O)OC2 [Compound 111, (2-ethoxy-2-oxo-ethyl) 1-hydroxy-7-methoxy-3H-2,1-benzoxaborole-6-carboxylate]
not listed: [4]
≥ 80%: all other assays above

COc1c(C(=O)OCC(C)(C)Cc2ccccc2)ccc2c1B(O)OC2 [Compound 117, (2,2-dimethyl-3-phenyl-propyl) 1-hydroxy-7-methoxy-3H-2,1-benzoxaborole-6-carboxylate]
not listed: Pythium ultimum
≥ 80%: all other assays above

COc1c(C(=O)OCCc2ccccc2F)ccc2c1B(O)OC2 [Compound 124, 2-(2-fluorophenyl)ethyl 1-hydroxy-7-methoxy-3H-2,1-benzoxaborole-6-carboxylate]
≥ 80%: all assays above
